Results: publication PMC12592502, “Unraveling the mechanisms behind the enhanced efficacy of β-lactam-based sideromycins” (Communications Biology, 2025)
Values after ≈ are worked out from the molar mass of the structure shown. Read-outs that look alike come from different tables or passages of the source.

Assays:
[1] = test system: CC1(C)S[C@@H]2[C@H](NC(=O)[C@H](N)c3ccccc3)C(=O)N2[C@H]1C(=O)O; experiment: purified protein, by the assay type; assay type: biochemical, A. baumannii ATCC 19606; conditions: other: 20 mM NaHCO3 added, NH = no hydrolysis detected, pH 7.0
Protocol: (§1) Enzyme concentrations were 20 nM for AmpC and SHV-1, and 50 nM for OXA-98. Quartz cuvette (FireflySci Inc., Northport, NY) with 1 cm length path and 2 mm inside width was used with an Ultrospec 2100 Pro (Biochrom, Harvard Bioscience Inc., USA) to acquire the kinetic measures. […] The following extinction coefficients (Δε) and wavelengths (λ) were used:
(§2) The steady-state parameters (Km and Kcat) were determined by plotting the initial velocity against substrate concentrations (Michaelis–Menten curve). The Kcat was measured using the Vmax (μM/sec) divided by the total enzyme concentration and the catalytic efficiency was further calculated (Kcat/Km). SHV-1 parameters were determined with three Michaelis–Menten curves of at least seven substrate concentrations, while OXA-98 and AmpC were duplicates of curves of at least seven substrate concentrations. […] Initial velocities were measured at room temperature (25 °C). The Vmax and Km were calculated using least squares fit regression in GraphPad version 10.2.2. Ki was measured using a derivative of IC50 with an adaptation of the Cheng–Prusoff equation[55]. […] The corrected Ki was calculated using this formula: Kicorrected=Ki(observed)/1+S/KmNCF

[2] = test system: O=C(Cc1cccs1)N[C@@H]1C(=O)N2C(C(=O)O)=C(/C=C/c3ccc([N+](=O)[O-])cc3[N+](=O)[O-])CS[C@H]12; experiment: purified protein, by the assay type; assay type: biochemical, A. baumannii ATCC 19606; conditions: other: 20 mM NaHCO3 added, NH = no hydrolysis detected, pH 7.0
Protocol: as §1, §2

[3] = test system: P. aeruginosa 1625 ΔmexAB-oprM, ΔmexEF-oprN; experiment: MIC, efflux pump mutant; assay type: cell-based, Pseudomonas aeruginosa; conditions: Pseudomonas aeruginosa
Protocol: (§3) Minimal inhibitory concentrations (MICs) were performed using a broth microdilution technique according to the Clinical and Laboratory Standards Institute (CLSI) guidelines. MICs were determined in MHBCA and in ID-MHBCA. To check the impact of β-lactamases, MICs in the presence of a β-lactamase inhibitor were also determined. The inhibitor was homogenized at 2X the final concentration and added to the bacterial inoculum just before distributing cells into the wells containing the drug dilutions. The final concentration of each inhibitor was 4 μg/mL for clavulanic acid (tested against K. pneumoniae) and 200 μg/mL for 3-aminophenylboronic acid (tested against P. aeruginosa and A. baumannii).

[4] = test system: P. aeruginosa 2302 MexAB, MexCD, MexEF upregulated; experiment: MIC, efflux pump overexpressing strain; assay type: cell-based, Pseudomonas aeruginosa; conditions: Pseudomonas aeruginosa
Protocol: as §3

P. aeruginosa ATCC 27853 = experiment: MIC, broth microdilution (CLSI); assay type: cell-based, Pseudomonas aeruginosa; conditions: MHBCA; for MIC in combination with PAβN (control antibiotics): + 25 µg/mL PAβN
Protocol: (§4) All bacterial strains (see description and sources Table S1) were stored at −80 °C, and grown on tryptone soya agar (TSA) at 35 °C. The iron-deprived (ID)-MHBCA (cation-adjusted Muller-Hinton Broth, Becton Dickinson, Mississauga, ON, Canada) medium was prepared as reported by refs. [21],[50]. Briefly, MHBCA was treated with 10% Chelex® 50-100 mesh (Sigma) and stirred for 6 h at room temperature. The resin was removed by filtration. Divalent Ca^2+ (CaCl2), Mg^2+ (MgCl2), and Zn^2+(ZnSO4), were then added in the iron-depleted medium at 22, 12, and 1 μg/ml respectively. Finally, the pH was adjusted to 7.3, and the medium was sterilized with a 0.2-μm filter. Regular MHBCA (i.e., not treated with Chelex®) was used to compare the inhibitory activity of conjugates in iron-sufficient conditions.
as §3

E. coli ΔacrAB = experiment: MIC, efflux pump mutant; assay type: cell-based, Escherichia coli
Protocol: as §3

E. coli MC4100 = experiment: MIC; assay type: cell-based, Escherichia coli; conditions: MC4100, MHBCA
Protocol: as §4, §3

E. coli PBP3 = test system: E. coli PBP3; parameters: method as in PMID 29061741; conditions: cited from earlier work
A. baumannii ATCC 19606 = experiment: MIC, broth microdilution (CLSI); assay type: cell-based, Acinetobacter baumannii; conditions: MHBCA
Protocol: as §4, with “conditions. The resin used for Chelex treatment was always fresh and had never been regenerated, ensuring consistent iron removal.” for “conditions.”
as §3

E. coli lptD4213 = experiment: MIC, hyperpermeable mutant; assay type: cell-based, Escherichia coli; conditions: lptD4213, MHBCA (+)
Protocol: as §4, with “conditions. The resin used for Chelex treatment was always fresh and had never been regenerated, ensuring consistent iron removal.” for “conditions.”
as §3

AmpC (PDC-5) = AmpC (PDC-5) (Pseudomonas aeruginosa, UniProt P24735, R79Q/T105A); experiment: biochemical; assay type: biochemical, P. aeruginosa ATCC 27853; conditions: n = 2
Protocol: The purification of AmpC from the culture supernatant obtained above was conducted as described in the Catwright and Waley protocol[52] using an Affi-gel 10 matrix (Bio-Rad, Hercules, CA, USA) loaded in a column (G-Bioscience, St-Louis, MO, USA). First, the resin was washed with cold deionized water. The resin was then collected and mixed with 20 mL of the 3-aminophenylboronic acid solution (1 M KHCO3 containing 2 g of 3-aminophenyl boronic acid and 2 g of sorbitol) at 4 °C for 1 h, and the pH was maintained at 8 with solid KHCO3. The mixture was loaded onto the column and washed with 10 column volumes of 1 M NaCl/0.5 M sorbitol (pH 7), followed by 10 column volumes of 0.5 M borate (pH 7), and then 10 column volumes of the loading buffer (20 mM triethanolamine HCl/0.5 M NaCl, pH 7). The sample was dialyzed in the loading buffer before being loaded onto the column. The column was washed with the loading buffer until no absorbance was measured at OD280. AmpC was eluted in fractions of 1 mL with 0.5 M borate/0.5 M NaCl pH 7. […] The purity was visualized on a 10% bis-acrylamide gel. Only pure fractions showing a single band at 40 kDa were pooled together and then dialyzed at 4 °C in a KP buffer 0.05 M pH 7 (see Fig. S2). The protein concentration was determined with a Bradford protein reagent (Bio-Rad).
as §1, §2

[5] = test system: CC1(C)S[C@@H]2[C@H](NC(=O)[C@H](N)c3ccccc3)C(=O)N2[C@H]1C(=O)O; experiment: purified protein, by the assay type; conditions: other: Michaelis–Menten curves, n = 3, 25 °C, pH 7.0
[6] = test system: O=C(Cc1cccs1)N[C@@H]1C(=O)N2C(C(=O)O)=C(/C=C/c3ccc([N+](=O)[O-])cc3[N+](=O)[O-])CS[C@H]12; experiment: purified protein, by the assay type; conditions: other: Michaelis–Menten curves, n = 3, 25 °C, pH 7.0

AmpC (PDC-5), sequence (P24735 27-397 R79Q/T105A): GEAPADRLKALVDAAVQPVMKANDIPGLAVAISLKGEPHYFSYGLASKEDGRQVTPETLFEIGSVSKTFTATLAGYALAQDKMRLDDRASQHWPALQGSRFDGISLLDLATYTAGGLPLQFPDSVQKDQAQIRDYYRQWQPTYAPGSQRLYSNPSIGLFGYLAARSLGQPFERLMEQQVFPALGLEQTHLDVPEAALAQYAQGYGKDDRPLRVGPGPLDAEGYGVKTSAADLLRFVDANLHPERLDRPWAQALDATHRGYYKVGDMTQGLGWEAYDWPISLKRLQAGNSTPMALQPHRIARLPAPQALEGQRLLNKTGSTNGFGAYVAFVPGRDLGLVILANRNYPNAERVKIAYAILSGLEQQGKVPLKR

What does the source list for “OXA-98 (Acinetobacter baumannii ATCC 19606 = CIP 70.34 = JCM 6841)”?
Km [1]: 490 ± 12 µM; kcat [1]: 22 ± 1 s⁻¹; kcat/Km [1]: 40000 ± 0 M⁻¹ s⁻¹; Km [2]: 343 ± 10 µM; kcat [2]: 3.5 ± 0.2 s⁻¹; kcat/Km [2]: 10000 ± 0 M⁻¹ s⁻¹

What does the source list for `C[C@H]1COc2c(N3CCN(C)CC3)c(F)cc3c(=O)c(C(=O)O)cn1c23` [LVX, levofloxacin]?
MIC [3]: ≤ 0.06 µM; MIC ([3]; read-out: MIC (control drug)): ≤ 0.06 µg/mL; MIC [4]: 16 µM; MIC ([4]; read-out: MIC (control drug)): 16 µg/mL

For `CC[C@H]1OC(=O)[C@H](C)[C@@H](O[C@H]2C[C@@](C)(OC)[C@@H](O)[C@H](C)O2)[C@H](C)[C@@H](O[C@@H]2O[C@H](C)C[C@H](N(C)C)[C@H]2O)[C@](C)(O)C[C@@H](C)C(=O)[C@H](C)[C@@H](O)[C@]1(C)O` [ERY, erythromycin], which “MIC in combination with PAβN (control antibiotics)” value (shortened to “MIC in combination with PAβN”) (P. aeruginosa ATCC 27853) is on record?
The value was 32 µg/mL.

What about the MIC (E. coli ΔacrAB; Escherichia coli) of the same molecule?
The MIC was 4 µM (≈ 2.94 µg/mL).

What about the “MIC (control antibiotic)” value (E. coli ΔacrAB; deletion of acrAB) of the same molecule?
Its value is 4 µg/mL (≈ 5.45 µM).

And the “reduction of MIC by deletion of acrAB” value (E. coli ΔacrAB; versus parent E. coli)?
Its value is 32 fold.

What about the “MIC in combination with PAβN” value (E. coli MC4100; + 25 µg/mL PAβN) of the same molecule?
The value was 16 µg/mL.

Which “decrease in the IC50 for E. coli PBP3 compared to ceftazidime” value (E. coli PBP3) does the source give for `CC(C)(O/N=C(\C(=O)N[C@@H]1C(=O)N2C(C(=O)[O-])=C(C[N+]3(CCNC(=O)c4ccc(O)c(O)c4Cl)CCCC3)CS[C@H]12)c1csc(N)n1)C(=O)O` [cefiderocol] here?
The value was 11 fold.

For `CO[C@H]1/C=C/O[C@@]2(C)Oc3c(C)c(O)c4c(O)c(c(/C=N/N5CCN(C)CC5)c(O)c4c3C2=O)NC(=O)/C(C)=C\C=C\[C@H](C)[C@H](O)[C@@H](C)[C@@H](O)[C@@H](C)[C@H](OC(C)=O)[C@@H]1C` [RIF, rifampicin, reference compound], which “MIC in combination with PAβN” value (P. aeruginosa ATCC 27853) is on record?
The value was 2 µg/mL.

What about the “MIC (control antibiotics)” value (P. aeruginosa ATCC 27853; without PAβN) of the same molecule?
Its value is 16 µg/mL (≈ 19.4 µM).

What about the “MIC in combination with PAβN” value (A. baumannii ATCC 19606; + 25 µg/mL PAβN) of the same molecule?
Its value is no more than 0.012 µg/mL.

And the “MIC (control antibiotics)” value (A. baumannii ATCC 19606; without PAβN)?
Its value is 16 µg/mL (≈ 19.4 µM).

What does the source list for `CN[C@H](CC(C)C)C(=O)N[C@H]1C(=O)N[C@@H](CC(N)=O)C(=O)N[C@H]2C(=O)N[C@H]3C(=O)N[C@H](C(=O)N[C@H](C(=O)O)c4cc(O)cc(O)c4-c4cc3ccc4O)[C@H](O)c3ccc(c(Cl)c3)Oc3cc2cc(c3O[C@@H]2O[C@H](CO)[C@@H](O)[C@H](O)[C@H]2O[C@H]2C[C@](C)(N)[C@H](O)[C@H](C)O2)Oc2ccc(cc2Cl)[C@H]1O` [VAN, vancomycin, reference compound]?
MIC (control antibiotic) (E. coli lptD4213): 0.5 µg/mL (≈ 0.345 µM); MIC (control antibiotics) (E. coli MC4100; without PAβN): > 128 µg/mL

For `O=C(Cc1cccs1)N[C@@H]1C(=O)N2C(C(=O)O)=C(/C=C/c3ccc([N+](=O)[O-])cc3[N+](=O)[O-])CS[C@H]12` [NCF, nitrocefin], which “AmpC (PDC-5) Vmax” value (AmpC (PDC-5)) is on record?
Its value is 121 ± 3 µmol·mg/min.

And the Km (AmpC (PDC-5); read-out: AmpC (PDC-5) Km, Michaelis–Menten curves)?
The Km was 103 ± 4 µM.

For SHV-1 (Klebsiella pneumoniae), which Km [5] is on record?
Its Km is 164 ± 4 µM.

And the kcat [5]?
Its kcat is 1565 ± 42 s⁻¹.

What about the kcat/Km [5] of the same molecule?
The kcat/Km was 9.5e+06 ± 300000 M⁻¹ s⁻¹.

And the Km [6]?
Its Km is 25 ± 3 µM.

What about the kcat [6] of the same molecule?
The kcat was 247 ± 48 s⁻¹.

And the kcat/Km [6]?
The kcat/Km was 9.8e+06 ± 2.3e+06 M⁻¹ s⁻¹.
